Article PMC9500755, “Albumin-Mediated Size Exclusion Chromatography: The Apparent Molecular Weight of PSMA Radioligands as Novel Parameter to Estimate Their Blood Clearance Kinetics” (Pharmaceuticals, 2022)
Values joined by “and” are separate entries in the source; they are usually repeats but may differ in a detail not shown here. Identical values can stand only once.

Key:
[1] = target: T1, human serum albumin (HSA) (Homo sapiens, UniProt P02768); experiment: Albumin-mediated size exclusion chromatography (AMSEC); assay type: in vitro ADME; details: for tR,AMSEC (retention time in AMSEC run): 177Lu-labeled ligand, mobile phase 700 µM HSA in PBS pH 7.4, Superdex 75 Increase, corrected for detector offset, normalized to column 1; for Retention factor k: fraction of time the radioligand is complexed to HSA during the AMSEC run, Equation (2); for MWapp,raw (raw apparent molecular weight): from tR,AMSEC by column calibration, 700 µM HSA in PBS pH 7.4; for MWapp,norm. (normalized apparent molecular weight): from tR,norm. by column calibration; for tR,norm. (normalized retention time): normalized with tR,blank, tR,HSA and tR,acetone, Equation (5)
T1 construct: purchased Biowest, Nuaillé, France
Procedure: All size exclusion chromatographic (SEC) experiments were carried out using the above-mentioned HPLC system equipped with a Superdex 75 Increase 10/300 GL gel filtration size exclusion column (fractionation range 70–3 kDa, GE Healthcare, Uppsala, Sweden). Eluents at room temperature, a constant flow rate of 0.8 mL/min, and an acquisition time of 35 min were generally applied. The column was calibrated as recommended by the manufacturer using a commercially available set of proteins (Gel Filtration LMW Calibration Kit, GE Healthcare, Buckinghamshire, UK). Retention times of calibration proteins and calculated calibration parameters are given in the Supplementary Materials (Table S3). UV signal detection occurred at 280 nm.
All retention times of radio signals were corrected for the offset between the UV-vis detector and radio-detector (Δt = 0.084 min). Throughout the development of the AMSEC method, three gel filtration columns of the same type were used for experiments (most data were acquired using column 1). As calculations were based on absolute empirical retention times that inherently differed slightly from column to column, all retention times determined on column 2 and column 3 were mathematically converted to an equivalent retention time on column 1 using the columns’ calibration parameters. A detailed description of these calculations is provided in the Supplementary Materials.
All numerical retention times explicitly given in running text or tables and plotted in diagrams are already corrected for the offset between UV-vis and radio-detector and, if initially determined on columns 2 or 3, converted to the equivalent retention time on column 1 (for detailed information, see Equations (S1) and (S2) and Table S1 in the Supplementary Materials).
AMSEC runs were executed with a solution of HSA (Biowest, Nuaillé, France) in PBS (pH 7.4) at physiological concentration (700 µM) as a mobile phase. Upon injection of approximately 1.0 MBq (5–10 µL) of a radioligand, the elution profile was monitored via radioactivity detection, and the retention times of observed radiopeaks (tR,AMSEC) were determined via semi-automated peak integration. By means of calibration, retention times were translated into a ligand-specific raw apparent molecular weight (MWapp,raw) as a parameter to assess the extent of HSA binding (for calculation, see Equation (S6) in the Supplementary Materials). rhPSMA-7.3 served as an internal standard during AMSEC studies and was co-evaluated whenever new data were collected to assess the reproducibility of the method (n = 14).
For reference purposes, conventional SEC runs of HSA (100 µL, 3 mg/mL) and acetone (100 µL, 2% in PBS pH 7.4) with PBS (pH 7.4) as a mobile phase were executed. The retention time of HSA (tR,HSA) corresponded to the maximal MWapp,raw, theoretically observable in AMSEC runs in the case of continuous binding of a radioligand to HSA (equivalent to 100% HSA binding). The retention time of acetone (tR,acetone) served as a reference for a ligand with no interaction with HSA in AMSEC runs (equivalent to 0% HSA binding) and an actual physical molecular weight below the column fractionation range (this was the case for all investigated radioligands).
(§1) MWapp,raw values determined as described in Section 3.3.1. were normalized in order to account for ligand-specific influences on experimentally determined retention times and to establish quantitative comparability of the obtained MWapp,norm. values. The normalization was based on a SEC run (referred to as blank run) of a radioligand executed in analogy to the AMSEC run but using PBS (pH 7.4) without HSA as a mobile phase. The determined retention time tR,blank, together with the retention time tR,AMSEC from the AMSEC run, tR,HSA, and tR,acetone determined in Section 3.3.1, were used to calculate a normalized retention time tR,norm. for every radioligand (for formulae and details on the calculation, see Section 2. Results and Discussion). […]

[2] = Blank SEC run of radioligand (PBS pH 7.4 without HSA); assay type: physicochemical
Procedure: To validate this hypothesis, blank runs (PBS pH 7.4 as mobile phase) of the radioligands on the SEC column were performed. The resulting retention times were termed tR,blank and represent the ligand-specific retention time that would correspond to 0% HSA binding in the AMSEC experiment. […] We concluded that unspecific electrostatic interactions between the highly negatively charged radioligand and the agarose/dextran-based matrix of the superdex column are present and lead to an elution prior to the expected cut-off volume. Consequently, apart from the radioligand’s binding to HSA in the AMSEC run, the unspecific interactions with the column matrix contribute to the determined MWapp,raw, thus hampering its informative value. […]
as §1, with “The normalization was based on a SEC run (referred to as blank run) of a radioligand executed in analogy to the AMSEC run but using PBS (pH 7.4) without HSA as a mobile phase.” left out

[3] = Calculated glomerular sieving coefficients (GSCcalc) from MWapp,norm.; details: from MWapp,norm. via sigmoidal fit of MW vs GSC of 12 human plasma proteins
Source text: Therefore, when comparing the MWapp,norm. of different radioligands, not only their relative difference but also the absolute values of MWapp,norm. are of importance. […] These GSCcalc determined for all the PSMA radioligands (Table 2, Figure 5) inherently account for the exponential nature of the relationship between their albumin-mediated MWapp,norm. and MW-dependent GF and could, therefore, be a useful parameter to estimate differences in blood clearance by means of GF. The GSC is defined as the ratio of a compound’s concentration in the glomerular filtrate to that in the blood; thus, a GSC of 1 represents unhindered filtration through the capillary membrane in the glomerulus, while a lower GSC corresponds to a restricted filtration and, thus, a prolonged circulatory half-life. […] As an example, a GSCcalc of 0.408 was determined for rhPSMA-7.3, while an almost three-fold smaller GSCcalc of 0.138 was determined for rhPSMA-7.4. […] This would constitute a dramatic physiological effect that, in its extent, could not be predicted only based on subtle differences in molecular structure and other conventionally determined in vitro parameters. We, therefore, believe that the MWapp,norm. and GSCcalc obtained by AMSEC could be important parameters that, already at the preclinical stage of development, could help in the selection of promising therapeutic radioligands with pharmacokinetic profiles suitable for patient application.
A sigmoidal fit of molecular weights (MWs, in kDa) and corresponding glomerular sieving coefficients (GSCs) of 12 human plasma proteins (data taken from Norden et al.) was executed using OriginPro software. A dose-response model based on Equation (6) was applied:(6) GSC=A1+A2−A1/1+10^(LOGx0−MW)·p.
The values of bottom asymptote A1 and top asymptote A2 were set to 4.2∙10^−5 (GSC of IgG, data taken from Norden et al.) and 1 (equaling complete sieving), respectively. Curve fitting gave the center parameter LOGx0 = 19.36833 and the Hill slope p = −0.12108. GSCcalc values were calculated via implementation of fitting parameters and the experimentally determined MWapp,norm. in Equation (6).

[4] = parameters: method as in PMID 26985056; details: 177Lu-labeled; cited from earlier work
[5] = parameters: method as in PMID 30105912, PMID 29684274; details: 177Lu-labeled, mice; cited from earlier work
[6] = parameters: method as in PMID 34531260; details: 177Lu-labeled, intrapatient comparison vs PSMA-I&T; cited from earlier work
[7] = parameters: method as in PMID 35086894; details: head-to-head with four isomers of rhPSMA-7 and rhPSMA-10.2; cited from earlier work

T1 sequence (P02768 25-609): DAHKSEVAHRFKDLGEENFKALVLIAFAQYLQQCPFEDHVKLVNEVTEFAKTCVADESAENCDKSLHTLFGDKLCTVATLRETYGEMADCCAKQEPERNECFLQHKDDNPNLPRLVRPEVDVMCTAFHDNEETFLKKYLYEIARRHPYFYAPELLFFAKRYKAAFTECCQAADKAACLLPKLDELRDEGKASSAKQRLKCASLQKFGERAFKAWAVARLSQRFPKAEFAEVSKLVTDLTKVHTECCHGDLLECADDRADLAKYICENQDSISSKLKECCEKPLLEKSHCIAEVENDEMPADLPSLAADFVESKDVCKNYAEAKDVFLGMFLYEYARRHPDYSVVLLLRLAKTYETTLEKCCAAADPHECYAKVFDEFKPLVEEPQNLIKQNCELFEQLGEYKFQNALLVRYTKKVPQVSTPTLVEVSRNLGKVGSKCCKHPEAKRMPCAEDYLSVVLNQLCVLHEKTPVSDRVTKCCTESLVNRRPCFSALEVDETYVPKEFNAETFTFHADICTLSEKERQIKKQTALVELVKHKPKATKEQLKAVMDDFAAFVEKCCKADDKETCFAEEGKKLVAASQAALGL

In the case of O=C(O)CC[C@H](NC(=O)N[C@@H](CCCCNC(=O)CCCCCCC(=O)NCCCC[C@@H](NC(=O)[C@@H](Cc1ccccc1)NC(=O)[C@@H](Cc1ccc(O)c(I)c1)NC(=O)CCC(C(=O)O)N1CCN(CC(=O)O)CCN(CC(=O)O)CCN(CC(=O)O)CC1)C(=O)O)C(=O)O)C(=O)O (stereo partly drawn) (177Lu complex, metal not drawn) [PSMA-I&T, reference compound], the “tR,AMSEC (retention time in AMSEC run)” value [1] is reported as 20.983 min, the “Relative reduction in MWapp,norm. compared to MWapp,raw” value ([1]; effect of normalization) is reported as “around 60%” and the Retention factor k [1] is reported as 0.0013 and 0.001. For the same compound, the “MWapp,raw (raw apparent molecular weight)” value [1] was 5.4 kDa, the “MWapp,norm. (normalized apparent molecular weight)” value [1] was 1.9 kDa and the “tR,norm. (normalized retention time)” value [1] was 24.792 min. The “MWapp,raw in percentage of the MWapp,raw of rhPSMA-7.3” value ([1]; rhPSMA-7.3 = 100%) was “approximately 18%” and the “tR,blank (retention time in blank run)” value ([2]; PBS pH 7.4 without HSA as mobile phase, corresponds to 0% HSA binding) was 20.995 min.

With O=C(O)CC[C@H](NC(=O)N[C@@H](CCCCNC(=O)[C@H](Cc1ccc2ccccc2c1)NC(=O)[C@H]1CC[C@H](CNC(=O)CN2CCN(CC(=O)O)CCN(CC(=O)O)CCN(CC(=O)O)CC2)CC1)C(=O)O)C(=O)O (177Lu complex, metal not drawn) [PSMA-617, reference compound] the “tR,AMSEC (retention time in AMSEC run)” value [1] was 17.586 min, the Retention factor k [1] was 0.447 and the “MWapp,raw (raw apparent molecular weight)” value [1] was 13.8 kDa. The “MWapp,norm. (normalized apparent molecular weight)” value [1] was 9.4 kDa, the “tR,norm. (normalized retention time)” value [1] was 18.988 min and the “GSCcalc (calculated glomerular sieving coefficient)” value (“GSCcalc” below) [3] was 0.942. For the same compound, the blood clearance [4] was “rapid, bi-phasic blood clearance”.

In the case of Cc1ccc(CCCC(=O)NCCCC[C@H](NC(=O)CN2CCN(CC(=O)O)CCN(CC(=O)O)CCN(CC(=O)O)CC2)C(=O)NCC2CCC(C(=O)N[C@@H](Cc3ccc4ccccc4c3)C(=O)NCCCC[C@H](NC(=O)N[C@@H](CCC(=O)O)C(=O)O)C(=O)O)CC2)cc1 (stereo partly drawn) (177Lu complex, metal not drawn) [PSMA-ALB-56], the “therapeutic efficacy compared to PSMA-617” value [5] is given as “superior therapeutic efficacy”.

For CC(C)(C)[Si](F)(c1ccc(C(=O)NC[C@@H](NC(=O)CC[C@@H](C(=O)O)N2CCN(CC(=O)[O-])CCN(CC(=O)[O-])CCN(CC(=O)[O-])CC2)C(=O)N[C@H](CCCCNC(=O)CCC(=O)NCCC[C@@H](NC(=O)CC[C@H](NC(=O)N[C@@H](CCC(=O)O)C(=O)O)C(=O)O)C(=O)O)C(=O)O)cc1)C(C)(C)C.[177Lu+3] [rhPSMA-7.3], the “tR,AMSEC (retention time in AMSEC run)” value [1] was 14.722 min and 14.722 ^3 min, the Retention factor k [1] was 0.667 ^1 and the “MWapp,raw (raw apparent molecular weight)” value [1] was 30.6 ^3 kDa. For the same compound, the “MWapp,norm. (normalized apparent molecular weight)” value [1] was 20.7 kDa and 20.7 ^1 kDa, the “mean MWapp,raw” value ([1]; mean ± SD, n = 14) was 30.6 kDa and the “tR,norm. (normalized retention time)” value [1] was 16.125 ^1 min. For the same compound, the “MW mathematically corresponding to tR,blank” value ([2]; PBS pH 7.4 without HSA) was 6.0 kDa, the “GSCcalc” value [3] was 0.408 and the “tumor dose relative to PSMA-I&T” value [6] was 2.4 fold.

With CC(C)(C)[Si](F)(c1ccc(C(=O)NC[C@@H](NC(=O)CN2CCN(CC(=O)[O-])CCN(CC(=O)[O-])CCN(CC(=O)[O-])CC2)C(=O)N[C@H](CCCCNC(=O)CCC(=O)NCCC[C@@H](NC(=O)CC[C@H](NC(=O)N[C@@H](CCC(=O)O)C(=O)O)C(=O)O)C(=O)O)C(=O)O)cc1)C(C)(C)C.[177Lu+3] [rhPSMA-10.1] the “tR,AMSEC (retention time in AMSEC run)” value [1] was 15.410 min, the Retention factor k [1] was 0.616 and the “MWapp,raw (raw apparent molecular weight)” value [1] was 25.3 kDa. For the same compound, the “MWapp,norm. (normalized apparent molecular weight)” value [1] was 17.2 kDa, the “tR,norm. (normalized retention time)” value [1] was 16.789 min and the “MWapp,norm. higher than that of the stereoisomer” value ([1]; rhPSMA-7.2 vs rhPSMA-7.1, rhPSMA-10.1 vs rhPSMA-10.2) was 30%. The “GSCcalc” value [3] was 0.644 and the “blood clearance in mice” value [7] was “fast blood clearance”.
